This is an account of results in publication PMC9763021, “Comprehensive Assessment of Biomolecular Interactions of Morpholine-Based Mixed Ligand Cu(II) and Zn(II) Complexes of 2,2′-Bipyridine as Potential Anticancer and SARS-CoV-2 Agents: A Synergistic Experimental and Structure-Based Virtual Screening” (Bioinorganic Chemistry and Applications, 2022).

In general, Kd refers to the equilibrium constant for the complex coming apart.

The subject of one assay is Escherichia coli. Put plainly: Agar disc diffusion, strain A. The assay is classed as cell-based. Also noted: (inhibition %): concentration or dose not given beside the values. The settings on record: for (inhibition %): (T–C)/T×100; for diameter of the clear zone inhibition: control (DMSO) = 6 mm. The method, then: (§1) In-vitro antimicrobial properties were evaluated for all samples by the agar disc diffusion method towards different fungal and bacterial strains. Additionally, the reported inhibition zone values were comparatively analyzed with the standard antifungal drugs ketoconazole and amphotericin B as well as the standard antibiotic medications streptomycin and amikacin.
(§2) The current research has a curious focus on the in vitro antimicrobial properties of biological systems because these studies are crucial for developing effective antibacterial and antifungal medications. […] It can also be spelled out based on the chelation theory proposed by Overtone and Tweedy. Chelation theory points out that the partial exchanging of the positive charge of the metal center with donor moieties, and overlap of the ligand orbitals will reduce the greater degree of the metal ion's polarity, which ultimately rises the delocalization of π and d electrons over the full chelated ring system. By raising the size of the metal ion due to the retarding of polarization, chelation may also enhance the complexes' lipophilic characteristics, which further stimulate the lipid membrane permeability and break down the bacteria' enzymes responsible for cell wall formation, therefore slowing down the regular cell processes. By preventing the production of cell walls/proteins/DNA, including by obstructing folate metabolism and the cytoplasmic membrane, antimicrobial drugs frequently either fully eliminate microbes or only prevent their cell growth. Additionally, the samples' mode of action may be employed in disrupting the cell's respiration process by forming an H-bond during the morpholine-fused iminic group coordinated with the active metal center of its components, inhibiting proliferation of the cell. […] The difference in the antimicrobial efficacy of some of the compounds towards various microorganisms influences on the impermeability of the cells of the germs or the diversity of ribosomes of the microbes. The % of the inhibition of all substances is estimated from (45) (Table 9).
(§3) (A, B, C, D, and E are represented as gram negative bacteria species Escherichia coli, Salmonella enteric serovar typhi, Salmonella enteric serovar typhi, Pseudomonas aeruginosa, and Shigella flexneri, respectively. F & G are denoted as gram positive bacteria species Staphylococcus aureus and Bacillus cereus. H, I, and J are represented as fungal strains Aspergillus niger, Candida albicans, and Mucor indicus. Standard drugs for bacterial strains: Amikacin & Streptomycin Standard drugs for fungal strains: Ketoconazole and Amphotericin B. [Control (DMSO) = 6 mm].(44) Inhibition %=T–C/T×100, where T and C are represented as the diameter of microbial growth of the sample plates and the control plate (6 mm), respectively. Error limits ±2.5–5.0% (P ≤ 0.05).
For orientation: In agar diffusion tests the substance spreads into inoculated agar from a disc or well.

The subject of assay [1] is Salmonella enteric serovar typhi. Nature of the assay: Agar disc diffusion, strain C. It counts as cell-based. The settings on record: for diameter of the clear zone inhibition: control = 6 mm. The procedure:
as §1, §2, §3

For another assay, the target named is bovine serum albumin (Bos taurus, UniProt P02769). Put plainly: BSA binding by UV-visible absorption titration. The settings on record: for Chromism (% H), hyperchromism: BSA 278 nm; for Δλ (nm), blue shift of BSA band: Tris-HCl, 25 μM BSA; for ∆Gb°: –RT lnKapp, 298 K. The procedure:
In the presence of Tris-HCl buffer solution, the UV-vis absorption titrations were done with a 25 μM concentration of BSA at room temperature. While the sample concentrations (0–25 μM) increased in the same BSA concentration solution, the change in the absorption band at 278 nm was continuously noted.
The UV-visible spectral titration properties are imperatively supported to scrutinize the structural changes and the nature of quenched biomolecules by the chemical substance. The titration was executed for BSA in the presence and absence of substances in Tris-HCl solution (Figure 7 and Table 7). Two distinctive adsorption peaks can be noticed in the UV-visible spectra of free BSA: one at 210 nm, which is connected to the polypeptide backbone, and the other at 280 nm, which is responsible for Trp, Tyr, and Phe aromatic amino acid residues. BSA's interaction with the test substances is designated by alterations in the electronic absorption spectra. Quenching typically occurs in either a static or dynamic phase. The static quenching mechanism only involves the synthesis of a bovine serum albumin-compound in the ground state, when a dynamic quenching mechanism involves the temporary presence of the excited state due to diffusion, which brings the BSA and the compound into close proximity. In addition, the dynamic quenching mechanism has no outcome on the electronic absorption spectrum; it only affects the excited state. Furthermore, both types have different temperature dependences; for example, in dynamic quenching, the quenching constants are meant to rise with temperature. Conversely, raised temperatures in static quenching favour decreased stability and lower quenching constants. […] It also recommended that bovine serum albumin and the test compounds in the ground state interact statically. In this case, the evaluated hyperchromism was found in the range of 47.79 to 65.62%. […] The Benesi–Hildebrand (37) is supported to evaluate the Kb values (Table 7). The Kapp findings for all substances were estimated from the finding of the intercept divided slope in the linear regression plot of [(A∞ − A0)/(Ax − A0)] vs. {1/[compound]} M^−1(Figure S34). The evaluated Kb findings for all test substances were in the subsequent order: (1a) > (2a) > (HL) with ∆Gb° values from –22.1246 to –28.0038 kJ·mol^−1. Complex (1a) is also clearly shown to have the greatest spontaneous binding efficacy with BSA among others.
Hyperchromism%=(A∞ − A0)/A∞ × 100; A0 is denoted as absorbance of BSA alone at 278 nm, A∞ is represented as absorbance of the fully bound form of BSA with complex or ligand, and Ax is absorbance of BSA in the addition of different concentration of complex or ligand, Gibb's free energy change ΔGb°=–RT lnKapp (where R = […] and T = 298 K); Kapp is denoted as apparent binding constant evaluated from the UV-vis absorption spectral titration.(37) A∞−A0/AX−A0=1/KbCompound+1, where ∆Amax = (A∞ − A0), ∆A = (Ax − A0), A0, Ax, and A∞ are denoted as the absorbance of free BSA, the absorbance of BSA in the increment concentrations of the compound, and the absorbance value of the fully bound form of bovine serum albumin with substance, respectively. Error limit ±2.5%.

Sequence of bovine serum albumin (P02769 25-607): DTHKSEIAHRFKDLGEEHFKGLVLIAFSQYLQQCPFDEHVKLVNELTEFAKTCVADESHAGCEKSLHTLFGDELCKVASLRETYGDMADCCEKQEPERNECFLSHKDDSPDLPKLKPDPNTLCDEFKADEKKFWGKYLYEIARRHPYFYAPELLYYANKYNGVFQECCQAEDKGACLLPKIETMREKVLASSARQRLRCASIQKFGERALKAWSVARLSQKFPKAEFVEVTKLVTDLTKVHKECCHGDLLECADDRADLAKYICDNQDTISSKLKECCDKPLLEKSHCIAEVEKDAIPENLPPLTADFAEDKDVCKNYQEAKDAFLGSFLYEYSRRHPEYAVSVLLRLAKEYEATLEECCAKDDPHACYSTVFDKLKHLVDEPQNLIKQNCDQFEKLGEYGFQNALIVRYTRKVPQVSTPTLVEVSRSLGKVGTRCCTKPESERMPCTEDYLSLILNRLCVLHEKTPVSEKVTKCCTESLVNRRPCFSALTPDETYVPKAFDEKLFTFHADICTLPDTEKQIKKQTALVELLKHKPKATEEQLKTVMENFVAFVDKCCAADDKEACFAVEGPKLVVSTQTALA

Turning to `[Cu+2].[O-]c1ccccc1N=Cc1ccc(N2CCOCC2)cc1.[O-]c1ccccc1N=Cc1ccc(N2CCOCC2)cc1.c1ccc(-c2ccccn2)nc1` [(1a), [Cu(L)2(bpy)]], in the assay with Escherichia coli, the “(inhibition %)” value is recorded as 54% and the “diameter of the clear zone inhibition” value stood at 13 mm. Also, in assay [1], the “(inhibition %)” value was determined as 50% and the “diameter of the clear zone inhibition” value turned out to be 12 mm. In addition, at bovine serum albumin, the “Binding constant Kapp by BH method” value stood at 81059 M⁻¹; the “Chromism (% H), hyperchromism” value came to 65.62%; the “Δλ (nm), blue shift of BSA band” value was determined as 05 nm; the “∆Gb°” value is -6.69307 kcal/mol.

Consider `[O-]c1ccccc1N=Cc1ccc(N2CCOCC2)cc1.[O-]c1ccccc1N=Cc1ccc(N2CCOCC2)cc1.[Zn+2].c1ccc(-c2ccccn2)nc1` [(2a), [Zn(L)2(bpy)]], for which, in the assay with Escherichia coli, the “(inhibition %)” value worked out at 50% and the “diameter of the clear zone inhibition” value was determined as 12 mm. In assay [1], the “(inhibition %)” value came out at 33% and the “diameter of the clear zone inhibition” value was 09 mm. Further, on bovine serum albumin, the “Binding constant Kapp by BH method” value amounted to 44355 M⁻¹; the “Chromism (% H), hyperchromism” value is recorded as 55.04%; the “Δλ (nm), blue shift of BSA band” value amounted to 04 nm; the “∆Gb°” value is -6.33389 kcal/mol.

With `Oc1ccccc1N=Cc1ccc(N2CCOCC2)cc1` [(HL), 2-(4-morpholinobenzylideneamino)phenol], in the assay with Escherichia coli, the “(inhibition %)” value amounted to 33% and the “diameter of the clear zone inhibition” value came to 09 mm. Further, in assay [1], the “(inhibition %)” value came out at 45% and the “diameter of the clear zone inhibition” value is 11 mm. Besides, on bovine serum albumin, the Kd is 132 µM; the “Chromism (% H), hyperchromism” value came to 47.79%; the “Δλ (nm), blue shift of BSA band” value is given as 02 nm; the “∆Gb°” value was -5.28791 kcal/mol.
